Paper PMC12040169 (PLOS Biology, 2025)

Experiment: in vitro
Conditions: human, hela cells, % viability

In order of rising viability at 28.5 h, 10 µM:
1. CCC(CN1CCCC1)NC(=O)Cc1c(C)[nH]c2ccc(F)cc12 (stereo not drawn) [CBK282751]  76.4%
2. O=c1c2snc(-c3ccc(F)cc3)c2ncn1C1CC1 [CBK282859]  76.9%
3. Cc1nn(C)cc1S(=O)(=O)Nc1ccc2c(ccn2C)c1 [CBK282806]  77.4%
4. CCn1cc(CN(CCN(C)C)Cc2ccc(C)o2)c(C)n1 [CBK282845]  79.6%
5. CCn1cc(CN2C3CCC2CC(O)(c2cccc(F)c2)C3)c(C)n1 (stereo not drawn) [CBK282755]  80.9%
6. CN1Cc2ccccc2CC1C(=O)N1CCCC12CC=CC2 (stereo not drawn) [CBK282838]  81.3%
7. C=CCn1ncc(CN(CCN(C)C)Cc2ccc(C)o2)c1C [CBK282846]  81.3%
8. CCC(CN1CCCC1)NC(=O)Cc1cc(C)ccc1OC (stereo not drawn) [CBK282759]  83.2%
9. CCn1cc(S(=O)(=O)N2CCCC3(CCCCC3)C2)c(C)n1 [CBK282756]  83.9%
10. Cc1cc2ccccc2n2c(=O)n(CCNC(=O)C(C)C)nc12 [CBK282876]  84.2%
11. COCCC(=O)NC(Cc1ccsc1)c1nc(C)cs1 (stereo not drawn) [CBK282830]  85.1%
12. Cc1ccc(C2(O)CCN(Cc3c(C)nc4sccn34)CC2)cc1 [CBK282734]  85.8%
13. Cc1ccc(O)c(CN(CCCn2ccnc2)CC2CC=CCC2)c1 (stereo not drawn) [CBK282829]  86.7%
14. Cc1cc(C)c(-n2cccn2)c(CN2CCC(CO)C2)c1 (stereo not drawn) [CBK282915]  87.1%
15. OC1(c2ccccn2)CCN(CCc2ccccc2)CC1 [CBK282904]  87.2%
16. Cc1nc(CC(=O)NC(Cc2ccsc2)c2nccs2)cs1 (stereo not drawn) [CBK282823]  87.5%
17. Cn1c(=O)n(C)c2cc(CNC3(c4ccccc4)CC3)ccc21 [CBK282746]  87.9%
18. COc1ccc(C)cc1CC(=O)N(C)CCN1CCCCC1 [CBK282750]  88.7%
19. NC[C@H]1CC[C@H](C(=O)NCC2CCCN(Cc3ccccc3)C2)CC1 (stereo partly drawn) [CBK282764]  89.6%
20. Cc1csc(C(Cc2ccsc2)NC(=O)Cn2cccn2)n1 (stereo not drawn) [CBK282831]  89.7%
21. O=C(Cn1nc(C(F)(F)F)c2cccn2c1=O)NC1CCCC1 [CBK282867]  90.2%
22. CCC(CN1CCCC1)NC(=O)C1CC(=O)Nc2ccccc21 (stereo not drawn) [CBK282757]  90.6%
23. CCN(CC)C(=O)Cn1ncc2c3oc(C)cc3n(C(C)C)c2c1=O [CBK282848]  90.7%
24. Cc1ccc(CNCc2cc3c(C)nn(-c4ccccc4)c3[nH]c2=O)o1 [CBK282896]  90.8%
25. CCC(CN1CCOCC1)NC(=O)Cc1coc2cc(C)c(C)cc12 (stereo not drawn) [CBK282811]  91%
26. O=C(Cc1ccc(F)cc1)N1CCOC(Cn2ccnc2)C1 (stereo not drawn) [CBK282875]  91%
27. Nc1cc(-c2cccs2)nn(Cc2ccccc2Cl)c1=O [CBK282884]  91%
28. CN(C)C(=O)CN1C(=O)[C@H]2CCCN2C(=O)c2ccccc21 [CBK282854]  91.2%
29. COC(=O)Cn1c(-c2ccc(F)cc2)cc2cccnc21 [CBK282763]  91.5%
30. CCC(CN1CCN(C)CC1)NC(=O)Cc1ccc2c(c1)CCC2 (stereo not drawn) [CBK282784]  92.2%
31. NC(=O)Cn1cc(CN2CCC(c3ccccc3)C2)c2ccccc21 (stereo not drawn) [CBK282803]  92.3%
32. CCn1cc(S(=O)(=O)NC2(c3ccc(F)cc3)CC2)c(C)n1 [CBK282837]  92.4%
33. CCC(CN1CCOCC1)NC(=O)Cc1c(C)[nH]c2ccc(F)cc12 (stereo not drawn) [CBK282774]  92.6%
34. C=C(C)CN1CCN(Cc2c[nH]nc2C(C)(C)C)CC1 [CBK282827]  92.6%
35. CCC(CN1CCCC1)NC(=O)Cc1ccc(OC)c(C)c1 (stereo not drawn) [CBK282752]  92.9%
36. OC1(c2cccnc2)CCN(CC2(c3ccc(Cl)cc3)CC2)CC1 [CBK282780]  93%
37. Cc1nn(-c2ccccc2)c2[nH]c(=O)c(CNC(C)C)cc12 [CBK282899]  93.1%
38. CCC(CN1CCOCC1)NC(=O)Cc1coc2cc(C)ccc12 (stereo not drawn) [CBK282791]  93.3%
39. CC1CN(Cc2c(C(C)C)[nH]c3ncccc23)CC(C)O1 (stereo not drawn) [CBK282900]  93.7%
40. CCCN(CC1CC1)C(=O)Cn1c([C@@H]2CCCO2)cc2cccnc21 [CBK282871]  94.4%
41. O=C(c1cccnc1)N1CCN(CC2(c3ccccc3)CC2)CC1 [CBK282906]  94.5%
42. Cc1ccc2oc(CN3CCC(O)(c4cccnc4)CC3)c(C)c2c1 [CBK282816]  94.7%
43. Cc1ccc(C)c2nc3c(cc12)CN(C1CC1)C(=O)CO3 [CBK282858]  94.8%
44. COc1ccc(C2(NCc3c(C)nc4sccn34)CC2)cc1 [CBK282835]  95.2%
45. CC(C)C(=O)N1CCCC(n2c(=O)oc3ccc(Cl)cc32)C1 (stereo not drawn) [CBK282890]  95.3%
46. O=C1CC[C@@H](NCc2ccoc2)[C@H](c2cc(F)cc(F)c2)N1 [CBK282912]  96%
47. O=C(c1ccccn1)N1CCCC(c2cc3ccccc3cn2)C1 (stereo not drawn) [CBK282832]  96.3%
48. O=C1[C@@H]2CCCN2C(=O)c2ccccc2N1CCN1CCCC1 [CBK282857]  96.3%
49. O=C(NC(Cc1ccsc1)c1nccs1)C1CCOCC1 (stereo not drawn) [CBK282824]  96.4%
50. CC(C)(C)C(=O)NCCn1c(=O)oc2ccccc21 [CBK282885]  96.4%
51. OC1(c2ccccc2)CCN(Cc2ccccc2-n2cccn2)C1 (stereo not drawn) [CBK282795]  96.5%
52. CC(=O)N1c2ccc(C(O)CN3CCCC(C)C3)cc2CC1C (stereo not drawn) [CBK282922]  96.5%
53. CCC(CN1CCCC1)NC(=O)C1(c2ccccc2)CCOCC1 (stereo not drawn) [CBK282758]  96.6%
54. CN1CCC(N(CCO)CC2(c3ccc(Cl)cc3)CC2)CC1 [CBK282781]  96.6%
55. CN(C)CCN(Cc1cccnc1)C(=O)C1(c2ccccc2F)CC1 [CBK282771]  97%
56. CCn1cc(NC(=O)CCn2c(C(F)F)cc3cccnc32)cn1 [CBK282769]  97.1%
57. O=C(NC1(c2ccccc2)CC1)c1cc(-n2cnnc2)ccc1Cl [CBK282777]  97.2%
58. O=C(CC1CCS(=O)(=O)C1)NC1(c2ccc(Cl)cc2)CC1 (stereo not drawn) [CBK282773]  97.6%
59. O=C1CC[C@@H](NCc2cccc(O)c2)[C@H](c2cc(F)cc(F)c2)N1 [CBK282909]  98%
60. O=C1CCCN1c1ccc(CN2CCC(O)(c3ccccc3)C2)cc1 (stereo not drawn) [CBK282808]  98.4%
61. O=C1CC[C@H](NC(=O)c2cccs2)C(c2cccnc2)N1 (stereo partly drawn) [CBK282901]  98.5%
62. O=C(c1ccco1)N1CCc2cc(-c3cn4c(n3)CCCC4)ccc21 [CBK282893]  98.8%
63. C=C(C)CN1CCN(Cc2cnn(C3CCCCC3)c2)CC1 [CBK282828]  98.9%
64. O=C(NC1(c2ccccc2)CC1)c1cccc(-n2cnnc2)c1 [CBK282779]  99.1%
65. COCC(=O)NC(Cc1ccsc1)c1nc(C)cs1 (stereo not drawn) [CBK282804]  99.5%
66. O=C(C1CC1)N1CC2CCCC(C1)C2(O)c1cccnc1F (stereo not drawn) [CBK282889]  99.6%
67. Cn1cc(CN[C@@H]2CCC(=O)N[C@H]2c2cc(F)cc(F)c2)cn1 [CBK282913]  100%
68. C=CCn1cc(CN(CCN(C)C)Cc2ccc(C)o2)c(C)n1 [CBK282844]  101%
69. O=C1NCC2(CCN(C(=O)C3CC3)CC2)Oc2ccccc21 [CBK282918]  101%
70. O=S(=O)(NCC1(c2ccccc2)CCCC1)c1cccnc1 [CBK282762]  102%
71. O=C1CC[C@@H](NCc2ccsc2)[C@H](c2cc(F)cc(F)c2)N1 [CBK282910]  102%
72. CCCn1cc(CN2CCC(O)(c3ccc(C)cc3)CC2)cn1 [CBK282737]  103%
73. CN(C)CCN1CCN(CC2(c3ccc(Cl)cc3)CC2)CC1 [CBK282783]  103%
74. Cc1nn(-c2ccccc2)c2[nH]c(=O)c(CNC3CCC3)cc12 [CBK282897]  103%
75. O=C1NCC2(CCN(C(=O)c3ccco3)CC2)Oc2ccccc21 [CBK282919]  103%
76. C=Cn1ncc(CN2C3CCC2CC(O)(c2ccc(F)cc2)C3)c1C (stereo not drawn) [CBK282738]  104%
77. CCC(CN1CCN(C)CC1)NC(=O)C1(c2ccc(F)cc2)CC1 (stereo not drawn) [CBK282785]  104%
78. C=CCNC(=O)C1CCCN(c2nc3ccccc3n2C)C1 (stereo not drawn) [CBK282872]  105%
79. Cc1cc(-c2cc(=O)n(CCc3ccccc3)nc2-c2ccco2)on1 [CBK282879]  105%
80. Cc1cnc2c(c1)cc(C(F)(F)F)n2CC(=O)NC1CC1 [CBK282887]  105%
81. O=C1CCCN1c1ccc(S(=O)(=O)NCC2CC3CCC2C3)cc1 (stereo not drawn) [CBK282841]  106%
82. Cc1nn(C)cc1S(=O)(=O)N1CCc2cc(Cl)ccc21 [CBK282802]  107%
83. COc1ccc(C2(NCc3cn(CC(N)=O)c4ccccc34)CC2)cc1 [CBK282833]  107%
84. CN1C(=O)c2ccccc2C(O)C2(C)CN(Cc3ccccc3)CC12 (stereo not drawn) [CBK282849]  108%
85. Cn1cc(CN2CCN(CC3(c4ccccc4)CC3)CC2)cn1 [CBK282794]  109%
86. COc1ccc(NC(=O)CCn2ccc3ccncc32)c(C)c1 [CBK282860]  109%
87. CCC(CN1CCN(C)CC1)NC(=O)C1(c2cccc(F)c2)CC1 (stereo not drawn) [CBK282786]  110%
88. CC1CCc2noc(C3CCCN(C(=O)c4ccco4)C3)c2C1 (stereo not drawn) [CBK282865]  110%
89. COc1ccccc1Cn1ncc2c1CCCC2NC(=O)C1CCC1 (stereo not drawn) [CBK282895]  110%
90. CNC(=O)[C@@H]1CN(Cc2ccccc2)C[C@H]1C(=O)c1ccc(F)cc1 [CBK282902]  110%
91. O=C(NC1(c2ccccc2)CC1)c1ccc(-n2cnnc2)cc1 [CBK282778]  111%
92. O=C1Nc2ccccc2S(=O)(=O)N2CCCC12 (stereo not drawn) [CBK282864]  112%
93. COCC(=O)NC1CC(C)(C)Cc2c1cnn2-c1ccc(C)cc1 (stereo not drawn) [CBK282866]  118%
